Laboratory results taken from patent publication US9394299B2, “Rilyazine derivatives and compositions for the treatment of cancer” (Warner Babcock Institute for Green Chemistry, LLC, priority 2013, dated 2016).
Entries after “also recorded” stand apart in the source; their conditions may differ. Like-named read-outs stand apart in the source and are kept apart here.

System: 60 cell lines (human tumor cell lines of the cancer screening panel)
Experiment: NCI 60 cell line screening, single point dosing at 10 μM (SRB)
Assay type: cell-based
Conditions: for GI50: Homo sapiens, read-out: GI50 (NCI Results, single point, 10 μM); for Delta of Growth Percent across all cell lines / Mean Growth Percent across all cell lines: single dose 10^−5 M
Method: The screening is a two-stage process, beginning with the evaluation of all compounds against 60 cell lines at a single dose of 10^−5 M.
The human tumor cell lines of the cancer screening panel are grown in RPMI 1640 medium containing 5% fetal bovine serum and 2 mM L-glutamine. Cells are inoculated into 96 well microtiter plates in 100 μL at plating densities ranging from 5,000 to 40,000 cells/well depending on the doubling time of individual cell lines. After cell inoculation, the microtiter plates are incubated at 37° C., 5% CO2, 95% air and 100% relative humidity for 24 h prior to addition of experimental drugs.
After 24 h, two plates of each cell line are fixed in situ with TCA, to represent a measurement of the cell population for each cell line at the time of drug addition Time Zero (Tz). Experimental drugs are solubilized in dimethyl sulfoxide:glycerol 9:1 at 400-fold the desired final maximum test concentration and stored frozen at −70° C. prior to use. At the time of drug addition, an aliquot of frozen concentrate is thawed and diluted to twice the desired final maximum test concentration with complete medium containing 50 μg/ml gentamicin. Additional four, 10-fold or ½ log serial dilutions are made to provide a total of five drug concentrations plus control. Aliquots of 100 μl of these different drug dilutions are added to the appropriate microtiter wells already containing 100 μl of medium, resulting in the required final drug concentrations.
Positive control is prepared by adding the known anti-tumor agent adriamycin, NSC 123127, prepared and stored the same as the compounds for testing.
Following drug addition, the plates are incubated for an additional 48 h at 37° C., 5% CO2, 95% air, and 100% relative humidity. For adherent cells, the assay is terminated by the addition of cold TCA. Cells are fixed in situ by the gentle addition of 50 μl of cold 50% (w/v) TCA (final concentration, 10% TCA) and incubated for 60 minutes at 4° C. The supernatant is discarded, and the plates are washed five times with tap water and air dried. Sulforhodamine B (SRB) solution (100 μl) at 0.4% (w/v) in 1% acetic acid is added to each well, and plates are incubated for 10 minutes at room temperature. After staining, unbound dye is removed by washing five times with 1% acetic acid and the plates are air dried. Bound stain is subsequently solubilized with 10 mM trizma base, and the absorbance is read on an automated plate reader at a wavelength of 515 nm. For suspension cells, the methodology is the same except that the assay is terminated by fixing settled cells at the bottom of the wells by gently adding 50 μl of 80% TCA (final concentration, 16% TCA).
For the 1-dose 60 cell testing, the Growth Percent is calculated for each cell line/drug combination from the absorbance measurement for the no-drug control (C), the absorbance at time zero (Tz) and the absorbance measurement after incubation of the cells in the presence of drug (Ti): Growth Percent=[(Ti−Tz)/(C−Tz)]×100 for cell line/drug combinations for which Ti≧Tz. Growth Percent=[(Ti−Tz)/Tz]×100 for cell line/drug combinations for which Ti<Tz.
Calculation of the Growth Percent by these equations allows detection of both growth inhibition (Growth Percent values between 0 and 100) and lethality (Growth Percent values less than 0). For example, a Growth Percent value of 100 means no growth inhibition. A Growth Percent value of 40 would mean 60% growth inhibition. A Growth Percent value of 0 means no net growth over the course of the experiment, or “cytostatic”, no change by growth or cell death. A Growth Percent value of −40 would mean 40% lethality. A Growth Percent value of −100 means all cells are dead.
For 1-dose 60 cell testing, the Mean Growth Percent, Delta and Range across all 60 cell lines are also calculated. The Deviation of each cell line/drug combination from the Mean is also calculated and plotted: Deviation=Mean Growth Percent−Growth Percent […]

[1] = single point 10 μM, 60 cell lines

SMILES	GI50 (60 cell)	Delta of Growth Percent across all cell lines (60 cell lines)	Mean Growth Percent across all cell lines (60 cell lines)	anti-proliferative effect / growth inhibition (in words) [1]	GI50 [1]
O=c1c2cccnc2c(-c2ccccn2)nn1C1CCCCC1 [RL-1, 6-cyclohexyl-8-(pyridin-2-yl)pyrido[2,3-d]pyridazin-5(6H)-one]	> 10 µM	11.75	104.31%	little to no effect on cell growth; also recorded: little to no appreciable anti-proliferative effects	
O=c1c2ncccc2c(-c2ccccn2)nn1C1CCCCC1 [RL-3, 7-Cyclohexyl-5-(pyridin-2-yl)pyrido[2,3-d]pyridazin-8(7H)-one]	> 10 µM	24.63	101.11%	little to no effect on cell growth; also recorded: little to no appreciable anti-proliferative effects	
S=c1c2cccnc2c(-c2ccccn2)nn1C1CCCCC1 [RL-2, 6-cyclohexyl-8-(pyridin-2-yl)pyrido[2,3-d]pyridazine-5(6H)-thione]		30.65	99.96%	little to no effect on cell growth; also recorded: little to no appreciable anti-proliferative effects	> 10 µM
